Assay results reported in US5968526A, “T cell epitopes of the major allergens from Dermatophagoides (house dust mite)” (Immulogic Pharamaceutical Corporation, priority 1995, dated 1999).

Columns and labels:
[1] = tested on: T cell lines primed in vitro with Der p II; assay: T cell proliferation with fine map and modified Group II peptides (Example XIV); assay type: cell-based, human; conditions: for positive T cell responses, modified peptides: 21 T cell lines, Der p II primed, FIG. 32a; for T cell response, Group II peptides: FIGS. 32a-b
Description: (§1) Long term T cell lines were established by stimulation of 2×10^6 PBL/ml in bulk cultures of complete medium (RPMI-1640, 2 mM L-glutamine, 100 U/ml penicillin/streptomycin, 5×10^-5 M 2-mercaptoethanol, and 10 mM HEPES supplemented with 5% heat inactivated human AB serum) with 30 μg/ml of purified native Der p I or Der p II for 5-6 days at 37° C. in a humidified 5% CO2 incubator to select for house dust mite protein allergen reactive T cells. This amount of priming antigen was determined to be optimal for the activation of T cells from house dust mite allergic patients. Viable cells were purified by LSM centrifugation and cultured in complete medium supplemented with 5 units recombinant human IL-2/ml and 5 units recombinant human IL-4/ml for up to three weeks until the cells no longer responded to lymphokines and were considered "rested". The ability of the T cells to proliferate to selected peptides, purified Der p I or Der p II, or positive (PHA) controls or negative controls (medium only) was then assessed. For assay, 2×10^4 rested cells were restimulated in the presence of 2×10^4 autologous Epstein-Barr virus (EBV)-transformed B cells (prepared as described below) (gamma-irradiated with 25,000 RADS) or with 5×10^4 autologous PBMs (gamma-irradiated with 3500 RADS), with 2-50 μg/ml of purified native Der p I or Der p II in a volume of 200 μl complete medium in duplicate or triplicate wells in 96-well round bottom plates for 3 days. Each well then received 1 μCi tritiated thymidine for 16-20 hours. The counts incorporated were collected onto glass fiber filter mats and processed for liquid scintillation counting. […] The titrations were used to optimize the dose of peptides in T cell assays.
(§2) The maximum response in a titration of each peptide is expressed as the stimulation index (S.I.). The S.I. is the counts per minute (CPM) incorporated by cells in response to peptide, divided by the CPM incorporated by cells in medium only. […] The positive results were used in calculating mean stimulation indices for each peptide for the individual patient tested.
(§3) The above procedure was followed with 18 patients in the studies using peptides derived from Der p I and Der f I (FIGS. 31a-b), and 21 patients in the studies with Der p II peptides (FIGS. 32a-b). Individual patient results were used in calculating the mean S.I. for each peptide if the patient responded to the Der p I or Der p II protein at an S.I. of 2.0 or greater and the patient responded to at least one peptide derived from a house dust mite allergen at an S.I. f 2.0 or greater. A summary of positive experiments from the patients tested is shown in FIGS. 32a and 32b and FIGS. 33a and 33b. The bars represent the positivity index. […] In parenthesis above each bar are the mean stimulation indices for each peptide or protein for the group of patients tested.
(§4) Autologous EBV-transformed cell lines were γ-irradiated with 25,000 Rad and used as antigen presenting cells in secondary proliferation assays and secondary bulk stimulations. These EBV-transformed cell lines were made by incubating 5×10^6 PBL with 1 ml of B-59/8 Marmoset cell line (ATCC CRL1612, American Type Culture Collection, Rockville, Md.) conditioned medium in the presence of 1 μg/ml phorbol 12-myristate 13-acetate (PMA) at 37° C. for 60 minutes in 12×75 mm polypropylene round-bottom Falcon snap cap tubes (Becton Dickinson Labware, Lincoln Park, N.J.). These cells were then diluted to 1.25×10^6 cells/ml in RPMI-1640 as described above except supplemented with 10% heat-inactivated fetal bovine serum and cultured in 200 μl aliquots in flat bottom culture plates until visible colonies were detected. They were then transferred to larger wells until the cell lines were established.

[2] = tested on: human IgE; assay: direct binding ELISA of IgE to mite allergen proteins and peptides; conditions: plasma of 19 mite-allergic patients and pool of 18; Example XV
Description: The coating antigens were removed and the wells are blocked with 0.5% gelatin in PBS, 300 μl/well for 2 hours at room temperature. Pooled human plasma (a mix of plasma samples from 20 patients that were skin test positive for commerical mite extract) was serially diluted with PBS-Tween 20 (PBS with 0.05% nonionic detergent Tween-20 Sigma, St. Louis, Mo.) and 100 μl/well a.backslash.was added and incubated overnight at 4° C. (plasma dilutions were tested in duplicate). The second antibody (biotinylated goat anti-Human IgE, 1:1000, Kirkegaard & Perry Laboratories Inc, Gaithersburg, Md.), was added at 100 μl/well for one hour at room temperature. This solution was removed and streptavidin-HRPO, 1:10000, (Southern Biotechnology Associates, Inc., Birmingham, Ala.) was then added at 100 μl/well for one hour at room temperature (all wells are washed three times with PBS-Tween between each incubation step). TMB Membrane Peroxidase Substrate system (Kirkegaard & Perry Laboratories) was freshly miced, and added at […]. The color was allowed to develop for 2-5 minutes. The reaction was stopped by the addition of […] of 1M phosphoric acid. Plates were read on a Microplate IL310 Autoreader (Biotech Instruments, Winooski, Vt.) with a 450 nm filter. The absorbance levels of duplicate wells were averaged. The order of coating antigens listed vertically in these figure legends corresponds in orDer from left to right to the coating antigens listed for each histogram.
The antigen preparation that was used as a positive control was a mixture of the four major biochemically purified mite allergens (term PMA for Purified Mite Allergen); Der f I, Der f II, Der p I and Der p II. The stock was generated at a concentration of 100 μgs of each protein per millimeter or 400 μgs total protein/ml. This preparation was used on each coated ELISA plate.

[3] = tested on: T cell lines primed in vitro with Der p I; assay: T cell proliferation with fine map and modified Group I peptides (Example XIV); assay type: cell-based, human; conditions: FIGS. 31a-b
Description: as §1, §2, §3, §4

[4] = tested on: T cell lines primed in vitro to Der p I; assay: secondary proliferation of Der p I-primed T cell lines (Examples V, VII, XI); assay type: cell-based, human; conditions: for T cell response to selected Der p I peptides: 33 positive experiments, FIG. 13; for positivity index (P.I.): mean S.I. × percent responders, 33 patients
Description: 10^7 PBMC from individual 543 were cultured in 10 ml RPMI-1640 containing 5% pooled human AB serum and supplemented with glutamine, penicillin, streptomycin and HEPES buffer in the presence of 20 μg/ml purified native Der p I/ml at 37° C. for 7 days. Viable cells were then purified by Ficoll-Hypaque centrifugation and cultured for 2 additional weeks in RPMI-1640/5% AB serum containing 5 units recombinant human IL-2/ml and 5 units recombinant human IL-4/ml. The resting T cells were then tested in a secondary proliferation assay to assess T cell responses to various house dust mite proteins and peptides. For assay, 2×10^4 resting T cells were cultured in 200 μl of RPMI-1640/5% AB serum for 3 days at 37° C. in the presence of 2×10^4 autologous Epstein-Barr virus transformed B cells (20,000 Rads) as antigen presenting cells with various concentrations of purified native Der p I or synthetic Der p I peptides. Each well then received 1 μCi tritiated thymidine for 16 hours. The counts incorporated were collected onto glass fiber filters and processed for liquid scintillation counting. Medium alone, acting as negative control, contained no allergen or peptide. The results of this experiment indicate that this particular patient responds with an S.I. of at least 2.0 to several peptides derived from the Der p I protein, including DP I-1, DP I-2, DP I-4, DP I-11, DP I-5, DP I-13, DP I-15, DP I-6.1, DP I-8, DP I-9, DP I-16, DP I-10 and DP I-17 (data not shown).
The above procedure was followed with a number of other house dust mite allergic individuals except a) in individual cases, the length of time of cultivation with IL-2 and IL-4 varied; b) in individual cases, the T cells were primed with either purified native (N) or recombinant (R) Der p I protein at either 20 μg/ml or 10 μg/ml; and c) in individual cases, x-irradiated (3500 Rads) autologous PBMC were used as antigen presenting cells in the secondary proliferation assay.
Individual results were considered positive and used if the individual responded to the Der p I protein and at least one peptide derived from Der p I at an S.I. of 2.0 or greater. The resting T cell lines primed with recombinant or native Der p I-stimulated PBMC were tested for reactivity to synthetic Der p I peptides. The maximum response for each peptide in a titration of the antigen is expressed as the T cell stimulation index (S.I.). The S.I. is the counts-per-minute (CPM) incorporated by cells in response to the peptide divided by the CPM incorporated by cells in medium only. […] However, only individual S.I. values greater than or equal to 2.0 (a response two-fold or greater over background), referred to herein as "positive" results, were used in calculating mean T cell stimulation indices for each peptide for the patient or group of patients tested. […] The T cell stimulation index is calculated by: [formula]
The bar represents the cumulative rank of the peptide response in the group of patients. To determine the cumulative rank, the 5 peptides with the highest S.I. in each individual were determined and assigned a numerical rank in descending order, with 5 representing the strongest response. The ranks for each peptide were then summed in the group of patients to determine the cumulative rank for the peptide. […] Given the percent positive and the mean T cell stimulation index, the positivity index (P.I.) for each peptide can be calculated.
The Der p I and Der f I proteins are very homologous (81% identity). Thus, experiments, similar to those of Example V, were carried out to determine the T cell responses of Der p I primed T cell lines when challenged with various Der p I peptides and substantially matching […].
The results of T cell studies using selected peptides derived from the Der p I, the Der f I, the Der p II and the Der f II proteins are shown in FIGS. 13-18a-d. […]

Substance	IgE binding (ELISA), modified peptides [2]	positive T cell responses, modified peptides [1]	T cell response, Group II peptides [1]	T cell response, Group I peptides [3]	also measured
DP I-22.4: Der p I peptide (VAATESAYLAHRNQSLDLAEQELVDCASQ)	–	–	–	positive responses	–
DP I-21.1: Der p I peptide (TNACSINGNAPAEIDLRQMRTVTPIRMQ)	–	–	–	positive response	T cell response to selected Der p I peptides [4]: respond significantly; positivity index (P.I.) [4]: at least 150
DP I-26.1: Der p I peptide (IIGIKDLDAFRHYDGRTIIQRDNGYQ)	–	–	–	positive T cell studies	T cell response to selected Der p I peptides [4]: respond significantly; positivity index (P.I.) [4]: at least 150
DP I-11.1: Der p I peptide, native sequence (HRNQSLDLAEQELVDCASQHGC)	–	–	–	positive response	difference in mean S.I. or percentage of positive responses, original vs additional (native sequence) peptides ([4]; DP I-11/12 vs DP I-11.1/12.1): no significant difference
DF I-22.4: Der f I peptide (VAATESAYLAYRNTSLDLSEQELVDCASQ)	–	–	–	positive responses	T cell response to selected Der f I peptides ([4]; Der p I primed, 30 positive experiments, FIG. 15a): respond significantly
DP I-23.1: Der p I peptide (EYIQHNGVVQESYYRYVAREQCRRPNAQ)	–	–	–	positive T cell studies	T cell response to selected Der p I peptides [4]: respond significantly; ranked sum of peptide responses ([4]; FIG. 15b, preferred peptides): highest ranked sum; positivity index (P.I.) [4]: at least 150

The next lines start with results.

IgE binding (ELISA), modified peptides [2]	Substance	positive T cell responses, modified peptides [1]	T cell response, Group II peptides [1]	T cell response, Group I peptides [3]	also measured
No plasma samples contained IgE	DP II-22.22: DKELEAVFEANQNTKTAKIEIKK	all 21 T cell lines responded positively	positive T cell studies	–	–
No plasma samples contained IgE	DP II-22.23: DKELEAVFEANQNTKTAKIED	all 21 T cell lines responded positively	positive T cell studies	–	–
No plasma samples contained IgE	DP II-25.9: modified Der p II peptide (DKTVKVMGDDGVLACAIATHAKIRDKE)	all 21 T cell lines responded positively	positive T cell studies	–	–
No plasma samples contained IgE	DP II-20.8: modified Der p II peptide (DQVDVKDCANHEIKKVLVPGCHGSEPK)	all 21 T cell lines responded positively	–	–	–
No plasma samples contained IgE	DP II-20.10: modified Der p II peptide (DQVDVKDCANHEIKKVLVPGCHGSEG)	all 21 T cell lines responded positively	positive T cell studies	–	–
No plasma samples contained IgE	DP II-20.11: modified Der p II peptide; printed with the same SEQ ID NO as DP II-20.9 (DQVDVKDCANHEIKKVLVPGCHGSE)	all 21 T cell lines responded positively	positive T cell studies	–	–
No plasma samples contained IgE	DP II-22.19: DKELEAVFEANQNTKTAKIEIKAD	all 21 T cell lines responded positively	positive T cell studies	–	–
